According to patent publication US7589100B2, “Non-hygroscopic and powdery amorphous pimecrolimus” (TEVA Gyógyszergyár Zártkörún Müködö Részvénytársaság, priority 2004, dated 2009):

Experiment: Hygroscopicity: water content (LOD) of samples stored at different relative humidity for one week
Type: physicochemical
Source text: As used herein, the term “non-hygroscopic” refers to a compound that contains no more than about 2% wt/wt of water, more preferably no more than about 1.5% wt/wt of water, most preferably no more than about 1% wt/wt of water, when exposed to 80% humidity, at room temperature for 1 week. The hygroscopicity of amorphous pimecrolimus of the present invention was examined by measuring the water content in samples stored at different relative humidity value (RH) (0, 40, 60, and 80 percent) for a period of one week.

hygroscopicity (result in words) (RH 0 to 80 percent, one week): non-hygroscopic
LOD (%) (original sample, before storage): 1.1%
LOD (%) (stored at RH 0 % for one week): 0.8%
LOD (%) (stored at RH 40 % for one week): 1.1%
LOD (%) (stored at RH 60 % for one week): 1.1%
LOD (%) (stored at RH 80 % for one week): 1.1%
water content of the samples (stored at relative humidity from about 0 percent to about 80 percent, one week): about 1%
Compound: CC[C@@H]1/C=C(\C)C[C@H](C)C[C@H](OC)[C@H]2O[C@@](O)(C(=O)C(=O)N3CCCC[C@H]3C(=O)O[C@H](/C(C)=C/[C@@H]3CC[C@H](Cl)[C@H](OC)C3)[C@H](C)[C@@H](O)CC1=O)[C@H](C)C[C@@H]2OC [Pimecrolimus, (1R,9S,12S,13R,14S,17R,18E,21 S,23S,24R,25S,27R)-12-[(1E)-2-{(1R,3R,4S)-4-chloro-3-methoxycyclohexyl}-1-methylvinyl]-17-ethyl-1,14-dihydroxy-23,25-dimethoxy-13,19,21,27-tetramethyl-11,28-dioxa-4-aza-tricyclo[22.3.1.0^4,9]octacos-18-ene-2,3,10,16-tetraone]
